Laboratory results published in patent US5314904A (priority 1991, dated 1994).
Values after ≈ are worked out from the molar mass of the structure shown. Where two headings read alike, the source gives them in different places.

Experiments:
[1] = tested on: Bacteroides bivius-disiens; assay: MIC in vitro, Bacteroides bivius-disiens (NCCLS M11-T2, agar Wilken-Chalgren); format: cell-based; details: 40 strains; for MIC: read-out: MIC Range of Concentration Value
From the text: (§1) Forty strains of Bacteroides bivius-disiens, 23 strains of Gardnerella vaginalis, 31 strains of the species Lactobacillus and 13 strains of Mobiluncus, 35 strains (from Iowa) and 25 strains (from Manitoba) of Neisseria gonorrhoeae, 25 strains of Haemophilus ducreyi and 6 strains of Chlamydia trachomatis have been analyzed.
(§2) Forty strains of Bacteroides bivius-disiens, 23 strains of Gardnerella vaginalis, 31 strains of Lactobacillus spp., 13 strains of Mobiluncus spp., 6 strains of Chlamydia trachomatis, 60 strains of Neisseria gonorrhoeae and 25 strains of Haemophilus ducreyi were obtained by culture collections supplied from: […]

[2] = tested on: Gardnerella vaginalis; assay: MIC in vitro, Gardnerella vaginalis (NCCLS M11-T2, agar Wilken-Chalgren); format: cell-based; details: for MIC: read-out: MIC Range of Concentration Value
From the text: as §1, §2

[3] = tested on: Lactobacillus spp.; assay: MIC in vitro, Lactobacillus spp. (NCCLS M11-T2, agar Wilken-Chalgren); format: cell-based; details: for MIC: read-out: MIC Range of Concentration Value
From the text: as §1, §2

[4] = tested on: Mobiluncus spp.; assay: MIC in vitro, Mobiluncus spp. (NCCLS M11-T2, agar Wilken-Chalgren); format: cell-based; details: for MIC: read-out: MIC Range of Concentration Value
From the text: as §1, §2

[5] = cited from earlier work
[6] = tested on: Chlamydia trachomatis; assay: MIC in vitro, Chlamydia trachomatis (Hoban et al. method); format: cell-based
From the text: (§3) Forty strains of Bacteroides bivius-disiens, 23 strains of Gardnerella vaginalis, 31 strains of the species Lactobacillus and 13 strains of Mobiluncus, 35 strains (from Iowa) and 25 strains (from Manitoba) of Neisseria gonorrhoeae, 25 strains of Haemophilus ducreyi and 6 strains of Chlamydia trachomatis have been analyzed. The determination of the minimum inhibitory concentration on the strains of the four types of anaerobic bacteria has been carried out according to NCCLS M11-T2 method (National Committee for Clinical Laboratory Standards. Methods for antimicrobial testing of anaerobic bacteria--second edition: Tentative Standard. NCCLS M11-T2, Villanova, Pa. NCCLS; 1989) on agar Wilken-Chalgren (Difco Laboratories, Detroit, Mich.) to which blood has been added.
(§4) Forty strains of Bacteroides bivius-disiens, 23 strains of Gardnerella vaginalis, 31 strains of Lactobacillus spp., 13 strains of Mobiluncus spp., 6 strains of Chlamydia trachomatis, 60 strains of Neisseria gonorrhoeae and 25 strains of Haemophilus ducreyi were obtained by culture collections supplied from:
(§5) The determination of the MIC with respect to Neisseria gonorrhoeae has been carried out according to the NCCLS M7-A2 method, while the determination of th MIC with respect to Chlamydia trachomatis, Mycoplasma hominis, Ureaplasma urealyticum and Haemophilus ducrey has been carried out according to Hoban D. et al. "In vitro activity of lomefloxacin against Chlamydia trachomatis, Neisseria gonorrhoeae, Haemophilus ducreyi, Mycoplasma hominis and Ureaplasma urealyticum." Diagn. Microbiol. Infect. Dis., 12, 83S-86S (1989).

[7] = tested on: Mycoplasma hominis; assay: MIC in vitro, Mycoplasma hominis (Hoban et al. method); format: cell-based; details: Metamycoplasma hominis
From the text: as §5

[8] = tested on: Ureaplasma urealyticum; assay: MIC in vitro, Ureaplasma urealyticum (Hoban et al. method); format: cell-based
From the text: as §5

[9] = tested on: Neisseria gonorrhoeae; assay: MIC in vitro, Neisseria gonorrhoeae (NCCLS M7-A2); format: cell-based
From the text: as §1, §4, §5

[10] = tested on: Haemophilus ducreyi; assay: MIC in vitro, Haemophilus ducreyi (Hoban et al. method); format: cell-based
From the text: as §3
The strains of Haemophilus ducreyi have been grown on chocolate agar for 24 hours at 35° C. in an atmosphere of carbon dioxide. After each material has been isolated, it is applied on chocolate agar containing appropriate dilution of antibiotic (Hoban D. et al. "In vitro activity of lomefloxacin against Chlamydia trachomatis, Neisseria gonorrhoeae, Haemophilus ducreyi, Mycoplasma hominis and Ureaplasma urealyticum". Diagn. Microbiol. Infect. Dis. 12, 83S-86S, 1989). The plates are incubated in an atmosphere containing carbon dioxide with increasing moisture at 35° C. for 48 hours.
as §2

Row | SMILES | MIC50 [1] [µg/mL] | MIC90 [1] [µg/mL] | MIC90 [2] [µg/mL] | MIC50 ([2]; 23 strains) [µg/mL] | MIC ([2]; 23 strains) [µg/mL] | MIC50 ([3]; 31 strains) [µg/mL] | MIC90 ([3]; 31 strains, read-out: MIC 90%) [µg/mL] | MIC ([3]; 31 strains) [µg/mL] | MIC50 ([4]; 13 strains) [µg/mL] | MIC90 ([4]; 13 strains, read-out: MIC 90%) [µg/mL] | MIC ([4]; 13 strains) [µg/mL] | MIC [1] [µg/mL] | MIC90 ([2]; 23 strains, read-out: MIC 90%) [µg/mL] | MIC90 [3] [µg/mL] | other results
1 | CC1(C)S[C@@H]2[C@H](NC(=O)[C@H](N)c3ccccc3)C(=O)N2[C@H]1C(=O)O [Ampicillin] | 4 (≈ 11.4 µM) | 64 (≈ 183 µM) | < 0.5 | ≤ 0.5 | 0.5 to 2 (≈ 1.43 to 5.72 µM) | ≤ 0.5 | 1 (≈ 2.86 µM) | 0.5 to 2 (≈ 1.43 to 5.72 µM) | ≤ 0.5 | 4 (≈ 11.4 µM) | 0.5 to 4 (≈ 1.43 to 11.4 µM) |  |  |  | 
2 | CCC[C@@H]1C[C@@H](C(=O)N[C@@H]([C@H]2O[C@H](SC)[C@H](O)[C@@H](O)[C@H]2O)[C@H](C)Cl)N(C)C1 [Clindamycin] | ≤ 0.06 | < 0.06 |  | ≤ 0.06 | 0.06 to 0.25 (≈ 0.141 to 0.588 µM) | 0.25 (≈ 0.588 µM) | 4 (≈ 9.41 µM) | 0.06 to 4 (≈ 0.141 to 9.41 µM) | ≤ 0.06 | < 0.06 | ≤ 0.06 | ≤ 0.06 | < 0.06 |  | side effects ([5]; compared with drugs currently used): serious side effects, particularly on the gastrointestinal tract with serious forms of diarrhea and pseudo-membranous colitis that can even lead to the death of the patient
3 | Cc1ncc([N+](=O)[O-])n1CCO [Metronidazole] | 2 (≈ 11.7 µM) | 4 (≈ 23.4 µM) | > 16 | > 16 |  | > 16 |  | > 16 | > 16 |  |  | 0.5 to 8 (≈ 2.92 to 46.7 µM) |  | > 16 | MIC90 [4]: > 16 µg/mL; side effects ([5]; in vivo): serious side effects particularly on the blood and on the central nervous system
4 | CO[C@H]1/C=C/O[C@@]2(C)Oc3c(C)c(O)c4c(O)c(c5c(nc6cc(C)ccn65)c4c3C2=O)NC(=O)/C(C)=C\C=C\[C@H](C)[C@H](O)[C@@H](C)[C@@H](O)[C@@H](C)[C@H](OC(C)=O)[C@@H]1C [Rifaximin, 4-desoxy-4'-methyl-pyrido [1'2':1.2] imidazo [5.4-c] rifamycin SV] | 0.12 (≈ 0.153 µM) | 0.25 (≈ 0.318 µM) |  | 0.5 (≈ 0.636 µM) | 0.25 to 1 (≈ 0.318 to 1.27 µM) | 0.12 (≈ 0.153 µM) |  | 0.3 to 1 (≈ 0.382 to 1.27 µM) | ≤ 0.03 | < 0.03 | ≤ 0.03 | 0.03 to 0.5 (≈ 0.0382 to 0.636 µM) | 1 (≈ 1.27 µM) | 0.5 (≈ 0.636 µM) | susceptibility [6]: has shown susceptibility to rifaximin; MIC90 ([6]; Chlamydia trachomatis, 6 strains): < 20 µg/mL; MIC ([6]; Chlamydia trachomatis, 6 strains, read-out: MIC Range of Concentration Value): 10 to 20 µg/mL (≈ 12.7 to 25.4 µM); MIC ([6]; Chlamydia trachomatis, read-out: M.I.C.): > 20 µg/mL; MIC50 ([7]; 20 strains): 64 µg/mL (≈ 81.4 µM); MIC90 ([7]; 20 strains): ≥ 64 µg/mL; MIC ([7]; 20 strains, read-out: MIC Range of Concentration Value): ≥ 64 µg/mL; MIC ([7]; read-out: M.I.C.): ≥ 64 µg/mL; MIC [8]: ≥ 64 µg/mL; MIC50 ([8]; 25 strains): 64 µg/mL (≈ 81.4 µM); MIC90 ([8]; 25 strains): > 64 µg/mL; MIC90 [9]: 16 µg/mL (≈ 20.4 µM); MIC50 ([9]; 60 strains): 0.25 µg/mL (≈ 0.318 µM); MIC90 [10]: 0.5 µg/mL (≈ 0.636 µM); MIC50 ([10]; 25 strains): 0.25 µg/mL (≈ 0.318 µM); MIC ([10]; 25 strains, read-out: MIC Range of Concentration Value): 0.03 to 0.5 µg/mL (≈ 0.0382 to 0.636 µM)
